For the series, the target named is Multidrug resistance-associated protein 1 (Homo sapiens, UniProt P33527). In words: TP_TRANSPORTER: drug sensitivity in MRP1-expressing NIH/3T3 cells. In kind it is functional, cell-based. The settings on record: mouse, nih3t3.

For one molecule, Activity results are on record in ChEMBL document CHEMBL2074402, “Expression of multidrug resistance-associated protein in NIH/3T3 cells confers multidrug resistance associated with increased drug efflux and altered intracellular drug distribution” (Cancer Res, 1995).

The structures appear in SMILES notation. Numbered stars: 1 amine (or outer) side, 2 acyl side, 3 side chain; on linkers, the order of the positions; unused ones are H or OH. Bridge positions count the residues as written; N and C are the ends. Square brackets hold non-standard residues; d marks the D form. Peptide text beside a SMILES is read from it. I, II: the chains in the order shown. Actinocin(9to1) = Cc1c2oc3c(C)ccc(C(=O)[*:1])c3nc-2c(C(=O)[*:2])c(N)c1=O; NMeV = CN[C@H](C(=O)O)C(C)C; Sar = CNCC(=O)O

Sequence of Multidrug resistance-associated protein 1 (P33527 whole entry): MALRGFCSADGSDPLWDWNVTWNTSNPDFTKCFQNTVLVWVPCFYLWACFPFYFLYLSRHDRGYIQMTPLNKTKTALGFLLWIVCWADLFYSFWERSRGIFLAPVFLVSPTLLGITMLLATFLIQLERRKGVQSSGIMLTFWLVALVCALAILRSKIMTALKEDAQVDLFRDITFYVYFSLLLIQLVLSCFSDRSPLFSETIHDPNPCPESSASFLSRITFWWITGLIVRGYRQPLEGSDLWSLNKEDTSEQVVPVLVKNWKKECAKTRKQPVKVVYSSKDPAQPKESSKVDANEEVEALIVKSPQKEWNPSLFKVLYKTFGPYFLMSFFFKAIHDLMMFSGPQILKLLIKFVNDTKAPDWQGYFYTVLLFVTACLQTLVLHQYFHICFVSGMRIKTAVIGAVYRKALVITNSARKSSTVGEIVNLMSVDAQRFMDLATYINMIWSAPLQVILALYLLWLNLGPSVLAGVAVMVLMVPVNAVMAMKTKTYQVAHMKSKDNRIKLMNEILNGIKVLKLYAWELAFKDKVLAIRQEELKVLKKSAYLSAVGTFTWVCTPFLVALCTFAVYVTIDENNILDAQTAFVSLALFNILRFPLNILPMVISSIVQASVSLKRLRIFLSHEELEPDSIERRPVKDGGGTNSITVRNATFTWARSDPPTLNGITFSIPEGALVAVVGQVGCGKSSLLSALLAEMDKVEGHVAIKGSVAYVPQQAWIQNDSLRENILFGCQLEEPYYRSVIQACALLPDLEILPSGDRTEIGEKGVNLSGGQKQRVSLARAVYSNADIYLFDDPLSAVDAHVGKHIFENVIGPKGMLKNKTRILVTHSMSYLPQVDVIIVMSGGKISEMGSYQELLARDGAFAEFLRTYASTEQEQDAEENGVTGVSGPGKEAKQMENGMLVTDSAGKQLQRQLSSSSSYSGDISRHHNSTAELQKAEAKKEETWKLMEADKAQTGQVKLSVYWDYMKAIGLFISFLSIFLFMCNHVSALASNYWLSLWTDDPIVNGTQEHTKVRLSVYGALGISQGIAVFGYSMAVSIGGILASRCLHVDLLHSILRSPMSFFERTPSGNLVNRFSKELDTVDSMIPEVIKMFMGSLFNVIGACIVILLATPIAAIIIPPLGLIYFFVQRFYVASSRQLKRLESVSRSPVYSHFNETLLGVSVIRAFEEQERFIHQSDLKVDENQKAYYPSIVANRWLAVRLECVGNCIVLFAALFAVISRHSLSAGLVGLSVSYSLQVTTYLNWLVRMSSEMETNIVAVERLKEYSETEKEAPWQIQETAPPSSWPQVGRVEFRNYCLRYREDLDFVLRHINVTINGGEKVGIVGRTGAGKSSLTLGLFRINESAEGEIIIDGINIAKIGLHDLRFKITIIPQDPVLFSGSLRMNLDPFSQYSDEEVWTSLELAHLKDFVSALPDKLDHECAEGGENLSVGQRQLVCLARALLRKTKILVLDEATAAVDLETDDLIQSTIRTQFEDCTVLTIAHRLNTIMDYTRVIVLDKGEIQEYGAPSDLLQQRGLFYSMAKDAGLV

Take `Cc1c2oc3c(C)ccc(C(=O)N[C@@H]4C(=O)N[C@H](C(C)C)C(=O)N5CCC[C@H]5C(=O)N(C)CC(=O)N(C)[C@@H](C(C)C)C(=O)O[C@@H]4C)c3nc-2c(C(=O)N[C@@H]2C(=O)N[C@H](C(C)C)C(=O)N3CCC[C@H]3C(=O)N(C)CC(=O)N(C)[C@@H](C(C)C)C(=O)O[C@@H]2C)c(N)c1=O` [DACTINOMYCIN] (I: T[dV]P[Sar][NMeV] / II: T[dV]P[Sar][NMeV]; ester I:1-I:C, II:1-II:C; linker I:N-II:N via Actinocin(9to1)): the Activity result is “substrate [+]”.
